For the test, the target named is T1, Human 5-lipoxygenase (Homo sapiens, UniProt P09917).
T1 construct: host or cells: Sf9 cells
T1 sequence (P09917 1-674): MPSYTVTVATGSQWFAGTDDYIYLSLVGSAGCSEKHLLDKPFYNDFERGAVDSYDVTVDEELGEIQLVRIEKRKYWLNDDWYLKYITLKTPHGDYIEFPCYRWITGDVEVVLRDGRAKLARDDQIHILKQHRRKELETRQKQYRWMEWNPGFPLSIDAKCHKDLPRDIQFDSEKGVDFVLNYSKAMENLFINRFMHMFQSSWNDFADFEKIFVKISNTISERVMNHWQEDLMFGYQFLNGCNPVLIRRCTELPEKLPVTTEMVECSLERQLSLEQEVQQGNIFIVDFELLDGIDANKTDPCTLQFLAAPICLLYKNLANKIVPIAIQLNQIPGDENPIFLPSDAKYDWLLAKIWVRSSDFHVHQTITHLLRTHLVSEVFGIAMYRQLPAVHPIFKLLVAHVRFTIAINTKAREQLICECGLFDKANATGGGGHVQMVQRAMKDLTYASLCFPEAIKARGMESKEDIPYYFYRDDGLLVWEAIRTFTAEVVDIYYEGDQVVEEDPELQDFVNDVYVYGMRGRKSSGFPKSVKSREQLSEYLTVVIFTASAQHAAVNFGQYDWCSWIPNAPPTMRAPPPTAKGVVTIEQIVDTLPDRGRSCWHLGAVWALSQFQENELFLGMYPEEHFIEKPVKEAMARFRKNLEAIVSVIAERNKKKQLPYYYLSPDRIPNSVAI
Description: 5-lipoxygenase enzyme activity, fluorescence measurement. Type of test: biochemical. The method, then: Human 5-lipoxygenase produced by Sf9 cells was used throughout the experiments. The enzyme was pre-incubated with 10 μM compound according to Example 2 at room temperature, then—after the addition of 25 μM arachidonic acid substrate—the amount of generated rhodamine 123 was determined by fluorescence measurement. Percentage of inhibition rate was calculated by comparison to untreated control reactions.

Consider one compound from US10287265B2, “Enantiomers of 8-hydroxyquinoline derivatives and the synthesis thereof” (AVIDIN Co. Ltd., priority 2015, dated 2019).

On to `Cc1ccnc(N[C@H](c2ccc(C(F)(F)F)cc2)c2ccc3cccnc3c2O)n1` [Example 2, 7-[(R)-[(4-Methylpyrimidin-2-yl)amino][4-(trifluoromethyl)phenyl]methyl]quinolin-8-ol], for which the “inhibition of 5-lipoxygenase enzyme (concentration range in words)” value is “inhibits in micromolar concentration”. The compound further had an inhibition at 10 µM (10 μM concentration, 25 μM arachidonic acid substrate) of 54%.

Usually inhibition stands for the change of the read-out against control, counted positive when it falls. High values mean a response far below the control, low ones a response near the control.
